Test results: the supplement of paper PMC11424490

Key:
NCI-H2122 = assay: combination cScore with sotorasib (Bliss gap around IC50) (%PoC); higher = stronger additive effect
Method in brief: (§1)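 The score averages the gap between expected and measured viability under Bliss independence, taken over a field around the IC50 of each single agent or, where an IC50 was not reached, at the highest concentrations. Viability came from CellTiter-Glo luminescence, normalised to vehicle wells as percent of control and fitted with four-parameter curves. NCI-H2122, NCI-H358 and SW837 cells were dosed in concentration matrices 24 h after seeding and grown for 72 h, or 144 h for SW837.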

SW837 = assay: as above
Method in brief: as §1

| SMILES | combination cScore with sotorasib (NCI-H2122) | combination cScore with sotorasib (SW837) |
| --- | --- | --- |
| Nc1ccn([C@@H]2O[C@H](CO)[C@@H](O)[C@@H]2O)c(=O)n1 [Cytarabin] + C=CC(=O)N1CCN(c2nc(=O)n(-c3c(C)ccnc3C(C)C)c3nc(-c4c(O)cccc4F)c(F)cc23)[C@@H](C)C1 [sotorasib] | 5.6 | 8.17 |
| CC(C)(C)c1nc(-c2cccc(NS(=O)(=O)c3c(F)cccc3F)c2F)c(-c2ccnc(N)n2)s1 [Dabrafenib] + C=CC(=O)N1CCN(c2nc(=O)n(-c3c(C)ccnc3C(C)C)c3nc(-c4c(O)cccc4F)c(F)cc23)[C@@H](C)C1 [sotorasib] | 13.3 | -2.81 |
| Nc1ncn([C@H]2C[C@H](O)[C@@H](CO)O2)c(=O)n1 [Decitabine] + C=CC(=O)N1CCN(c2nc(=O)n(-c3c(C)ccnc3C(C)C)c3nc(-c4c(O)cccc4F)c(F)cc23)[C@@H](C)C1 [sotorasib] | 1 | 0.84 |
| C[C@@H]1C[C@H]2[C@@H]3CCC4=CC(=O)C=C[C@]4(C)[C@@]3(F)[C@@H](O)C[C@]2(C)[C@@]1(O)C(=O)CO [Dexamethasone] + C=CC(=O)N1CCN(c2nc(=O)n(-c3c(C)ccnc3C(C)C)c3nc(-c4c(O)cccc4F)c(F)cc23)[C@@H](C)C1 [sotorasib] | -0.78 | -13.1 |
| CC(=O)O[C@@]12CO[C@@H]1C[C@H](O)[C@@]1(C)C(=O)[C@H](O)C3=C(C)[C@@H](OC(=O)[C@H](O)[C@@H](NC(=O)OC(C)(C)C)c4ccccc4)C[C@@](O)([C@@H](OC(=O)c4ccccc4)[C@H]21)C3(C)C [Docetaxel] + C=CC(=O)N1CCN(c2nc(=O)n(-c3c(C)ccnc3C(C)C)c3nc(-c4c(O)cccc4F)c(F)cc23)[C@@H](C)C1 [sotorasib] | 1.66 | 3.98 |
| COc1cccc2c1C(=O)c1c(O)c3c(c(O)c1C2=O)C[C@@](O)(C(=O)CO)C[C@@H]3O[C@H]1C[C@H](N)[C@H](O)[C@H](C)O1 [Doxorubicin] + C=CC(=O)N1CCN(c2nc(=O)n(-c3c(C)ccnc3C(C)C)c3nc(-c4c(O)cccc4F)c(F)cc23)[C@@H](C)C1 [sotorasib] | 11.1 | 11 |
| CN(NC(=O)CC(=O)NN(C)C(=S)c1ccccc1)C(=S)c1ccccc1 [Elesclomol] + C=CC(=O)N1CCN(c2nc(=O)n(-c3c(C)ccnc3C(C)C)c3nc(-c4c(O)cccc4F)c(F)cc23)[C@@H](C)C1 [sotorasib] | 13.6 | 13.4 |
| CNC(=O)c1ccc(N2C(=S)N(c3ccc(C#N)c(C(F)(F)F)c3)C(=O)C2(C)C)cc1F [Enzalutamide] + C=CC(=O)N1CCN(c2nc(=O)n(-c3c(C)ccnc3C(C)C)c3nc(-c4c(O)cccc4F)c(F)cc23)[C@@H](C)C1 [sotorasib] | 6.62 | 5.64 |
| COc1cc([C@@H]2c3cc4c(cc3[C@@H](O[C@@H]3O[C@@H]5CO[C@@H](C)O[C@H]5[C@H](O)[C@H]3O)[C@H]3COC(=O)[C@H]23)OCO4)cc(OC)c1O [Etoposide] + C=CC(=O)N1CCN(c2nc(=O)n(-c3c(C)ccnc3C(C)C)c3nc(-c4c(O)cccc4F)c(F)cc23)[C@@H](C)C1 [sotorasib] | 14.1 | 4.54 |
| CO[C@H]1C[C@@H]2CC[C@@H](C)[C@@](O)(O2)C(=O)C(=O)N2CCCC[C@H]2C(=O)O[C@H]([C@H](C)C[C@@H]2CC[C@@H](OCCO)[C@H](OC)C2)CC(=O)[C@H](C)/C=C(\C)[C@@H](O)[C@@H](OC)C(=O)[C@H](C)C[C@H](C)/C=C/C=C/C=C/1C [Everolimus] + C=CC(=O)N1CCN(c2nc(=O)n(-c3c(C)ccnc3C(C)C)c3nc(-c4c(O)cccc4F)c(F)cc23)[C@@H](C)C1 [sotorasib] | 4.54 | -4.84 |
| CN1CC[C@H](c2c(O)cc(O)c3c(=O)cc(-c4ccccc4Cl)oc23)[C@H](O)C1 [Flavopiridol] + C=CC(=O)N1CCN(c2nc(=O)n(-c3c(C)ccnc3C(C)C)c3nc(-c4c(O)cccc4F)c(F)cc23)[C@@H](C)C1 [sotorasib] | 6.54 | 1.46 |
| Nc1nc(F)nc2c1ncn2[C@@H]1O[C@H](CO)[C@@H](O)[C@@H]1O [Fludarabine] + C=CC(=O)N1CCN(c2nc(=O)n(-c3c(C)ccnc3C(C)C)c3nc(-c4c(O)cccc4F)c(F)cc23)[C@@H](C)C1 [sotorasib] | 9.97 | -1.86 |
| O=c1[nH]cc(F)c(=O)[nH]1 [Fluorouracil (5-FU)] + C=CC(=O)N1CCN(c2nc(=O)n(-c3c(C)ccnc3C(C)C)c3nc(-c4c(O)cccc4F)c(F)cc23)[C@@H](C)C1 [sotorasib] | 2.26 | 15.4 |
| C[C@]12CC[C@@H]3c4ccc(O)cc4C[C@@H](CCCCCCCCC[S+]([O-])CCCC(F)(F)C(F)(F)F)[C@H]3[C@@H]1CC[C@@H]2O (stereo partly specified) [Fulvestrant] + C=CC(=O)N1CCN(c2nc(=O)n(-c3c(C)ccnc3C(C)C)c3nc(-c4c(O)cccc4F)c(F)cc23)[C@@H](C)C1 [sotorasib] | 8.41 | 1.95 |
| CN(C)c1ccccc1CN1CCCN(Cc2ccccc2N(C)C)C1c1ccncc1 [GANT61] + C=CC(=O)N1CCN(c2nc(=O)n(-c3c(C)ccnc3C(C)C)c3nc(-c4c(O)cccc4F)c(F)cc23)[C@@H](C)C1 [sotorasib] | -3.17 | -1.32 |
| N#CN=C(NCCCCCCOc1ccc(Cl)cc1)Nc1ccncc1 [GMX1778] + C=CC(=O)N1CCN(c2nc(=O)n(-c3c(C)ccnc3C(C)C)c3nc(-c4c(O)cccc4F)c(F)cc23)[C@@H](C)C1 [sotorasib] | -13.8 | 7.36 |
| CCOC(=O)CCNc1cc(N2CCc3ccccc3CC2)nc(-c2ccccn2)n1 [GSK-J4] + C=CC(=O)N1CCN(c2nc(=O)n(-c3c(C)ccnc3C(C)C)c3nc(-c4c(O)cccc4F)c(F)cc23)[C@@H](C)C1 [sotorasib] | -0.59 | -0.52 |
| CC(C)c1cc(-c2n[nH]c(=O)n2-c2ccc3c(ccn3C)c2)c(O)cc1O [Ganetespib] + C=CC(=O)N1CCN(c2nc(=O)n(-c3c(C)ccnc3C(C)C)c3nc(-c4c(O)cccc4F)c(F)cc23)[C@@H](C)C1 [sotorasib] | -1.8 | 7.55 |
| Nc1ccn([C@@H]2O[C@H](CO)[C@@H](O)C2(F)F)c(=O)n1 [Gemcitabine] + C=CC(=O)N1CCN(c2nc(=O)n(-c3c(C)ccnc3C(C)C)c3nc(-c4c(O)cccc4F)c(F)cc23)[C@@H](C)C1 [sotorasib] | 3.14 | 1.12 |
| COc1ncc(-c2nc3c(n2C(C)C)[C@H](c2ccc(Cl)cc2)N(c2cc(Cl)cn(C)c2=O)C3=O)c(OC)n1 [HDM-201] + C=CC(=O)N1CCN(c2nc(=O)n(-c3c(C)ccnc3C(C)C)c3nc(-c4c(O)cccc4F)c(F)cc23)[C@@H](C)C1 [sotorasib] | 1.73 | 7.32 |
| CC(=O)[C@]1(O)Cc2c(O)c3c(c(O)c2[C@@H](O[C@H]2C[C@H](N)[C@H](O)[C@H](C)O2)C1)C(=O)c1ccccc1C3=O [Idarubicin] + C=CC(=O)N1CCN(c2nc(=O)n(-c3c(C)ccnc3C(C)C)c3nc(-c4c(O)cccc4F)c(F)cc23)[C@@H](C)C1 [sotorasib] | 8.08 | 5.83 |
| Cc1ccc(NC(=O)c2ccc(CN3CCN(C)CC3)cc2)cc1Nc1nccc(-c2cccnc2)n1 [Imatinib] + C=CC(=O)N1CCN(c2nc(=O)n(-c3c(C)ccnc3C(C)C)c3nc(-c4c(O)cccc4F)c(F)cc23)[C@@H](C)C1 [sotorasib] | -1.79 | 2.47 |
| CC(C)NC[C@@H](C(=O)N1CCN(c2ncnc3c2[C@H](C)C[C@H]3O)CC1)c1ccc(Cl)cc1 [Ipatasertib] + C=CC(=O)N1CCN(c2nc(=O)n(-c3c(C)ccnc3C(C)C)c3nc(-c4c(O)cccc4F)c(F)cc23)[C@@H](C)C1 [sotorasib] | 12.3 | 11.4 |
| O=C(/C=C\n1cnc(-c2cc(C(F)(F)F)cc(C(F)(F)F)c2)n1)NNc1cnccn1 [KPT-330] + C=CC(=O)N1CCN(c2nc(=O)n(-c3c(C)ccnc3C(C)C)c3nc(-c4c(O)cccc4F)c(F)cc23)[C@@H](C)C1 [sotorasib] | 3.63 | 0.325 |
| CN[C@@H](C)C(=O)N[C@H](C(=O)N1CCC[C@H]1c1nc(C(=O)c2ccc(F)cc2)cs1)C1CCCCC1 [LCL161] + C=CC(=O)N1CCN(c2nc(=O)n(-c3c(C)ccnc3C(C)C)c3nc(-c4c(O)cccc4F)c(F)cc23)[C@@H](C)C1 [sotorasib] | 2.3 | -3.76 |
| COc1ccccc1-c1cc(Nc2cccc(CS(N)(=O)=O)c2)ncn1 [LDC-067] + C=CC(=O)N1CCN(c2nc(=O)n(-c3c(C)ccnc3C(C)C)c3nc(-c4c(O)cccc4F)c(F)cc23)[C@@H](C)C1 [sotorasib] | 5.31 | 11.1 |
| Cc1cn(CCN2CCN(c3ccccc3-c3cc(C#N)cc(C(=O)NCCCN4CCCC4)c3)CC2)c2ccccc12 [LLY-507] + C=CC(=O)N1CCN(c2nc(=O)n(-c3c(C)ccnc3C(C)C)c3nc(-c4c(O)cccc4F)c(F)cc23)[C@@H](C)C1 [sotorasib] | 0.73 | 9.15 |
| Cc1ccc(NC(=O)c2ccnc(C(F)(F)F)c2)cc1-c1cc(OCCO)nc(N2CCOCC2)c1 [LXH-254] + C=CC(=O)N1CCN(c2nc(=O)n(-c3c(C)ccnc3C(C)C)c3nc(-c4c(O)cccc4F)c(F)cc23)[C@@H](C)C1 [sotorasib] | 7.11 | 5.53 |
